Experimental findings from patent US20250222003A1, “PHARMACEUTICAL COMPOSITION FOR TREATING SOLID TUMORS” (Eisai R&D Management Co., Ltd., priority 2021, published 2025) are described below.

The test system of the test is patients with a solid tumor. Nature of the test: Suppression of nausea or vomiting associated with administration of Compound A by antiemetics. It is filed as in vivo, human. Conditions: for number of subjects that did not show improvement of vomiting after the antiemetic / number of subjects in which vomiting could be suppressed / number of subjects showing improvement after switch from non-5-HT3 antiemetic to the 5-HT3 receptor antagonist: of 20 subjects; for number of subjects that did not show improvement of vomiting after the antiemetic: domperidone, metoclopramide or prochlorperazine; for number of subjects showing improvement of vomiting by the antiemetic: of 20 subjects complaining of vomiting during Cycle 1, prochlorperazine or metoclopramide; for number of subjects in which vomiting could not be suppressed: Compound A 160 mg BID; for number of subjects in which vomiting could not be suppressed / number of subjects in which vomiting could be suppressed / number of subjects showing improvement after switch from non-5-HT3 antiemetic to the 5-HT3 receptor antagonist: ramosetron or granisetron. The text has this:
For subjects of administration that had the gastrointestinal symptoms, nausea or vomiting, the results of administration of various antiemetics were investigated to determine whether they could suppress the occurrence of nausea or vomiting. The antiemetics used were domperidone ([…], Nauzelin tablet), metoclopramide (peripheral D2 receptor antagonist, metoclopramide tablet), ramosetron hydrochloride (5-HT3 receptor antagonist, Nasea tablet), granisetron (5-HT3 receptor antagonist (Kytril tablet), and the like.
The antiemetics were timely administered to 20 subjects of administration that complained of vomiting during Cycle 1.
FIGS. 1 and 2 are graphs showing the relationship between Cmax(Cmax,ss) or AUC (AUC(0-tau),ss) and the vomiting flag for each test subject at the time of CID8. For example, the vomiting flag 3 means a case in which treatment with an antiemetic other than the 5-HT3 receptor antagonist was first attempted but vomiting could not be suppressed, and vomiting could be suppressed when the antiemetic was switched to the 5-HT3 receptor antagonist.
Five additional patients were investigated whether the occurrence of nausea or vomiting, which is an adverse event having a causal relationship with Compound A, could be suppressed. Ramosetron hydrochloride or granisetron hydrochloride (5-HT3 receptor antagonist) was administered to four patients of administration that complained of vomiting during Cycle 1. Of the four patients that complained of vomiting, three patients received granisetron hydrochloride to prevent the gastrointestinal symptoms (nausea, vomiting) associated with administration of Compound A.

With `O=c1[nH]c2ccccc2n1CCCN1CCC(n2c(=O)[nH]c3cc(Cl)ccc32)CC1` [domperidone], the “number of subjects that did not show improvement of vomiting after the antiemetic” value was “four”.
Turning to `CN1CCN(CCCN2c3ccccc3Sc3ccc(Cl)cc32)CC1` [prochlorperazine], the “number of subjects showing improvement of vomiting by the antiemetic” value was “Two” and the “number of subjects that did not show improvement of vomiting after the antiemetic” value is on record as “four”.
Consider `Cl.Cn1cc(C(=O)[C@@H]2CCc3[nH]cnc3C2)c2ccccc21` [ramosetron, (−)-(R)-5-[(1-methyl-1H-indol-3-yl)carbonyl]-4,5,6,7-tetrahydro-1H-benzimidazole monohydrochloride], for which the “number of subjects in which vomiting could not be suppressed” value was “two”, the “number of subjects in which vomiting could be suppressed” value is reported as “twelve” and the “number of subjects showing improvement after switch from non-5-HT3 antiemetic to the 5-HT3 receptor antagonist” value was “four”.
`CCN(CC)CCNC(=O)c1cc(Cl)c(N)cc1OC` [metoclopramide]: the “number of subjects showing improvement of vomiting by the antiemetic” value was “Two” and the “number of subjects that did not show improvement of vomiting after the antiemetic” value is on record as “four”.
In the case of `CN1[C@@H]2CCC[C@H]1C[C@@H](NC(=O)c1nn(C)c3ccccc13)C2.Cl` [granisetron, 1-methyl-N-(endo-9-methyl-9-azabicyclo[3.3.1]non-3-yl)-1H-indazole-3-carboxamide hydrochloride], the “number of subjects in which vomiting could not be suppressed” value is on record as “two”, the “number of subjects in which vomiting could be suppressed” value is given as “twelve” and the “number of subjects showing improvement after switch from non-5-HT3 antiemetic to the 5-HT3 receptor antagonist” value is on record as “four”. Besides, the “number of test subjects in which vomiting could be suppressed when given after symptoms of nausea or vomiting” value (additional patients, Compound A 120 mg BID) is given as “one”. Further, the “vomiting after prophylactic administration” value (additional patients, Compound A 120 mg BID, three patients) is on record as “no vomiting occurred afterwards”. Also, the “number of subjects in which vomiting could be prevented when given at onset of nausea” value (of the twelve subjects) was “two”.
